Test results: ChEMBL document CHEMBL3885881, “DrugMatrix”

Organism: Rattus norvegicus
Assay: DrugMatrix - Regimen: Daily Repeat
Assay type: toxicity, organism-based, Sprague-Dawley
Design: regimen Daily Repeat, gender Male, age 6-8 weeks
Conditions: in vivo, po, 0 mg/kg, route oral GAVAGE, dose level Control, vehicle .5 % CMC; for ABSOLUTE BASOPHIL / ABSOLUTE EOSINOPHIL / ABSOLUTE LYMPHOCYTE / ABSOLUTE MONOCYTE / ABSOLUTE SEGMENTED NEUTROPHIL / BASOPHIL / EOSINOPHIL / ERYTHROCYTE COUNT / HEMATOCRIT / HEMOGLOBIN / LEUKOCYTE COUNT / LYMPHOCYTE / MEAN CORPUSCULAR HEMOGLOBIN / MEAN CORPUSCULAR HEMOGLOBIN CONCENTRATION / MEAN CORPUSCULAR VOLUME / MONOCYTE / NEUTROPHIL / NUCLEATED RED BLOOD CELLS / PLATELET COUNT: tissue Blood; for ALANINE AMINOTRANSFERASE / ALBUMIN / ALKALINE PHOSPHATASE / ASPARTATE AMINOTRANSFERASE / BLOOD UREA NITROGEN / CARBON DIOXIDE / CHLORIDE / CHOLESTEROL / CREATININE / GLUCOSE / LACTATE DEHYDROGENASE / LIPASE / PHOSPHORUS / POTASSIUM / SODIUM / TOTAL BILIRUBIN / TOTAL PROTEIN / URIC ACID: tissue Plasma

SMILES: COc1ccccc1[N+](=O)[O-] [2-NITROANISOLE]
- ABSOLUTE BASOPHIL (72 h, time 3 day): 0 CELLS/uL
- ABSOLUTE EOSINOPHIL (72 h, time 3 day): 279.83 CELLS/uL
- ABSOLUTE LYMPHOCYTE (72 h, time 3 day): 13152.5 CELLS/uL
- ABSOLUTE MONOCYTE (72 h, time 3 day): 1013.83 CELLS/uL
- ABSOLUTE SEGMENTED NEUTROPHIL (72 h, time 3 day): 2420.5 CELLS/uL
- BASOPHIL (72 h, time 3 day): 0%
- EOSINOPHIL (72 h, time 3 day): 1.67%
- ERYTHROCYTE COUNT (72 h, time 3 day): 5.26 x10E6/uL
- HEMATOCRIT (72 h, time 3 day): 32.22%
- HEMOGLOBIN (72 h, time 3 day): 12.02 G/DL
- LEUKOCYTE COUNT (72 h, time 3 day): 16.87 x10E3/uL
- LYMPHOCYTE (72 h, time 3 day): 77.83%
- MEAN CORPUSCULAR HEMOGLOBIN (72 h, time 3 day): 22.93 pg
- MEAN CORPUSCULAR HEMOGLOBIN CONCENTRATION (72 h, time 3 day): 37.32 G/DL
- MEAN CORPUSCULAR VOLUME (72 h, time 3 day): 61.4 fL
- MONOCYTE (72 h, time 3 day): 6%
- NEUTROPHIL (72 h, time 3 day): 14.5%
- NUCLEATED RED BLOOD CELLS (72 h, time 3 day): 0 /100WBC
- PLATELET COUNT (72 h, time 3 day): 1122.17 x10E3/uL
- ALANINE AMINOTRANSFERASE (72 h, time 3 day): 55.67 u/L
- ALBUMIN (72 h, time 3 day): 4.35 G/DL
- ALKALINE PHOSPHATASE (72 h, time 3 day): 362.67 u/L
- ASPARTATE AMINOTRANSFERASE (72 h, time 3 day): 96 u/L
- BLOOD UREA NITROGEN (72 h, time 3 day): 18 mg/dL
- CARBON DIOXIDE (72 h, time 3 day): 27.5 mmol/L
- CHLORIDE (72 h, time 3 day): 100.17 MEQ/L
- CHOLESTEROL (72 h, time 3 day): 74.5 mg/dL
- CREATININE (72 h, time 3 day): 0.17 mg/dL
- GLUCOSE (72 h, time 3 day): 141.67 mg/dL
- LACTATE DEHYDROGENASE (72 h, time 3 day): 682.5 u/L
- LIPASE (72 h, time 3 day): 10 u/L
- PHOSPHORUS (72 h, time 3 day): 11.5 mg/dL
- POTASSIUM (72 h, time 3 day): 6.41 MEQ/L
- SODIUM (72 h, time 3 day): 141.2 MEQ/L
- TOTAL BILIRUBIN (72 h, time 3 day): 0.18 mg/dL
- TOTAL PROTEIN (72 h, time 3 day): 5.88 G/DL
- URIC ACID (72 h, time 3 day): 1.4 mg/dL
- ABSOLUTE BASOPHIL (120 h, time 5 day): 0 CELLS/uL
- ABSOLUTE EOSINOPHIL (120 h, time 5 day): 18.5 CELLS/uL
- ABSOLUTE LYMPHOCYTE (120 h, time 5 day): 8146.83 CELLS/uL
- ABSOLUTE MONOCYTE (120 h, time 5 day): 204.83 CELLS/uL
- ABSOLUTE SEGMENTED NEUTROPHIL (120 h, time 5 day): 1329.83 CELLS/uL
- BASOPHIL (120 h, time 5 day): 0%
- EOSINOPHIL (120 h, time 5 day): 0.17%
- ERYTHROCYTE COUNT (120 h, time 5 day): 5.37 x10E6/uL
- HEMATOCRIT (120 h, time 5 day): 33.17%
- HEMOGLOBIN (120 h, time 5 day): 12.07 G/DL
- LEUKOCYTE COUNT (120 h, time 5 day): 9.7 x10E3/uL
- LYMPHOCYTE (120 h, time 5 day): 85.33%
- MEAN CORPUSCULAR HEMOGLOBIN (120 h, time 5 day): 22.52 pg
- MEAN CORPUSCULAR HEMOGLOBIN CONCENTRATION (120 h, time 5 day): 36.42 G/DL
- MEAN CORPUSCULAR VOLUME (120 h, time 5 day): 61.78 fL
- MONOCYTE (120 h, time 5 day): 1.83%
- NEUTROPHIL (120 h, time 5 day): 12.67%
- NUCLEATED RED BLOOD CELLS (120 h, time 5 day): 0 /100WBC
- PLATELET COUNT (120 h, time 5 day): 907.5 x10E3/uL
- ALANINE AMINOTRANSFERASE (120 h, time 5 day): 58.5 u/L
- ALBUMIN (120 h, time 5 day): 4.4 G/DL
- ALKALINE PHOSPHATASE (120 h, time 5 day): 377.67 u/L
- ASPARTATE AMINOTRANSFERASE (120 h, time 5 day): 140.33 u/L
- BLOOD UREA NITROGEN (120 h, time 5 day): 15.33 mg/dL
- CARBON DIOXIDE (120 h, time 5 day): 32.17 mmol/L
- CHLORIDE (120 h, time 5 day): 100 MEQ/L
- CHOLESTEROL (120 h, time 5 day): 71.83 mg/dL
- CREATININE (120 h, time 5 day): 0.18 mg/dL
- GLUCOSE (120 h, time 5 day): 185 mg/dL
- LACTATE DEHYDROGENASE (120 h, time 5 day): 241.5 u/L
- LIPASE (120 h, time 5 day): 9.5 u/L
- PHOSPHORUS (120 h, time 5 day): 13.02 mg/dL
- POTASSIUM (120 h, time 5 day): 6.45 MEQ/L
- SODIUM (120 h, time 5 day): 143.45 MEQ/L
- TOTAL BILIRUBIN (120 h, time 5 day): 0.22 mg/dL
- TOTAL PROTEIN (120 h, time 5 day): 6.1 G/DL
- URIC ACID (120 h, time 5 day): 1 mg/dL
- ABSOLUTE BASOPHIL ([…], time 14 day): 0 CELLS/uL
- ABSOLUTE EOSINOPHIL ([…], time 14 day): 117.17 CELLS/uL
- ABSOLUTE LYMPHOCYTE ([…], time 14 day): 13562 CELLS/uL
- ABSOLUTE MONOCYTE ([…], time 14 day): 534.83 CELLS/uL
- ABSOLUTE SEGMENTED NEUTROPHIL ([…], time 14 day): 2486 CELLS/uL
- BASOPHIL ([…], time 14 day): 0%
- EOSINOPHIL ([…], time 14 day): 0.83%
- ERYTHROCYTE COUNT ([…], time 14 day): 6.14 x10E6/uL
- HEMATOCRIT ([…], time 14 day): 36.87%
- HEMOGLOBIN ([…], time 14 day): 13.87 G/DL
- LEUKOCYTE COUNT ([…], time 14 day): 16.7 x10E3/uL
- LYMPHOCYTE ([…], time 14 day): 81%
- MEAN CORPUSCULAR HEMOGLOBIN ([…], time 14 day): 22.63 pg
- MEAN CORPUSCULAR HEMOGLOBIN CONCENTRATION ([…], time 14 day): 37.62 G/DL
- MEAN CORPUSCULAR VOLUME ([…], time 14 day): 60.15 fL
- MONOCYTE ([…], time 14 day): 3.17%
- NEUTROPHIL ([…], time 14 day): 15%
- NUCLEATED RED BLOOD CELLS ([…], time 14 day): 0 /100WBC
- PLATELET COUNT ([…], time 14 day): 974.83 x10E3/uL
- ALANINE AMINOTRANSFERASE ([…], time 14 day): 52.33 u/L
- ALBUMIN ([…], time 14 day): 4.48 G/DL
- ALKALINE PHOSPHATASE ([…], time 14 day): 346.17 u/L
- ASPARTATE AMINOTRANSFERASE ([…], time 14 day): 81 u/L
- BLOOD UREA NITROGEN ([…], time 14 day): 15.67 mg/dL
- CARBON DIOXIDE ([…], time 14 day): 34.33 mmol/L
- CHLORIDE ([…], time 14 day): 100.17 MEQ/L
- CHOLESTEROL ([…], time 14 day): 70.83 mg/dL
- CREATININE ([…], time 14 day): 0.22 mg/dL
- GLUCOSE ([…], time 14 day): 141.17 mg/dL
- LACTATE DEHYDROGENASE ([…], time 14 day): 121.33 u/L
- LIPASE ([…], time 14 day): 8.33 u/L
- PHOSPHORUS ([…], time 14 day): 9.97 mg/dL
- POTASSIUM ([…], time 14 day): 6.4 MEQ/L
- SODIUM ([…], time 14 day): 143.72 MEQ/L
- TOTAL BILIRUBIN ([…], time 14 day): 0.22 mg/dL
- TOTAL PROTEIN ([…], time 14 day): 6.45 G/DL
- URIC ACID ([…], time 14 day): 1.25 mg/dL
